Measured values from patent US7256200B2, “Method and composition for potentiating an oplate analgesic” (The Board of Trustees of the University of Illinois, a body …, priority 2003, dated 2007).
Entries after “also recorded” stand apart in the source; their conditions may differ.

Key:
[1] = Acute model of opioid tolerance (single s.c. morphine 100 mg/kg); format: in vivo; details: for prevention of opioid tolerance, acute model: administered simultaneously with morphine 100 mg/kg s.c., FIG. 6
From the text: (§1) Acute tolerance and dependence model is a method commonly used by researchers. […] In addition, the CaMKII inhibitor KN93 also was effective in reversing an already-established tolerance or dependence in the model (FIGS. 8 and 9). […] All effects are dose-dependent on the magnitude of inhibition of CaMKII.

[2] = biological target: CaMKII (Homo sapiens, UniProt Q9UQM7); details: structural analog of KN93 used as control; cited from earlier work
[3] = test system: protein kinase A; details: at doses administered; cited from earlier work
[4] = test system: mice; assay: Chronic mouse model of opioid tolerance (s.c. 75 mg morphine pellet); format: in vivo; details: FIG. 5
From the text: Additional in vivo tests corroborated initial test results showing that administration of a CaMKII inhibitor reduces or eliminates opioid tolerance and dependence. […] Administration of a CaMKII inhibitor, i.e., KN93, effectively reversed the established tolerance to opioids (FIG. 5). The effect of KN93 is dose dependent.

[5] = Acute model of opioid dependence (single s.c. morphine 100 mg/kg); format: in vivo
From the text: as §1

[6] = test system: PKC; details: at doses administered; cited from earlier work
[7] = test system: morphine-pelleted rats; assay: Morphine antinociceptive tolerance in morphine-pelleted rats, 52° C. warm water tail-flick test; format: in vivo, rat
Protocol: Individual groups of eight rats were implanted with i.th. catheters and allowed to recover for 5 to 7 days.
Individual groups of eight rats were implanted with i.th. catheters and allowed to recover for 5 to 7 days. […] KN93 dose-response effect was determined and compared to its effect in inhibiting CaMKII activity.
Male Sprague-Dawley rats (250-350 g) were used in all experiments.
For i.th. drug administration, rats were prepared according to the method described by Sakura et al. (1996). While under isoflurane anesthesia, an 8 cm length of PE10 tubing (32 gauge) was inserted through an incision made in the atlantooccipital membrane to the level of the lumbar enlargement. The catheter then was secured to the musculature at the site of incision, which then was closed. The rats were allowed 5 to 7 days to recover before experiments begin. […] Intrathecally administered substances were dissolved in saline and administered in a volume of 5 μl through a tubing with calibrated length connecting the i.th. catheter with the injection syringe. Progress of the injection was monitored carefully by observing the movement of a small air bubble (1 μl in volume) through the tubing. The catheter was cleared by flushing with 9 μl saline. In all cases, a dye was injected into the cannula at the termination of the experiment to ensure correct i.th. placement.
Briefly, while under isoflurane anesthesia, a 1.5 cm incision was made on the back of the animal. […] These pellets were left for less than 7 days unless otherwise indicated.
Latency to warm water tail withdrawal response was determined in the manner described previously (Wang et al., 2001, Vanderah et al., 2001). The one-third of distal tail was immersed into a water bath maintained at 52° C. […] The data were converted to % MPE (maximal possible effect), defined as 100×(test-control)/(cutoff-control), where control was the predrug observation, test was the postdrug observation, and cutoff was 10 seconds. Dose-response curves were generated over time to determine the time of peak effect, the dose producing 50% MPE (A50), and its confidence intervals (Tallarida et al., 1986).

[8] = test system: CaMKII; assay: Spinal CaMKII activity (pCaMKII Western blot) in morphine-pelleted rats; format: in vivo, rat; details: lumbar spinal cord, morphine vs placebo pelleted rats, two pairs of animals, β-actin control; FIG. 4
From the text: The average increase of CaMKII activity from two pairs of animals was 250%.
Briefly, while under isoflurane anesthesia, a 1.5 cm incision was made on the back of the animal. Morphine and placebo pellets were implanted into the subcutaneous space and the incision was closed with wound clips. These pellets were left for less than 7 days unless otherwise indicated.
Rats were sacrificed by carbon dioxide inhalation and decapitated. The spinal column was cut through at the S1/S2 level. A 16-gauge needle was inserted in the sacral vertebral canal, attached to a syringe containing ice-cold saline, and the spinal cord was ejected through the cervical opening. The spinal cord was placed on ice in a glass Petri dish and rapidly dissected using a dissecting microscope. For consistency, the lumbar enlargement corresponding to the L1 to L6 spinal segments was excised and used for all assays. […]
Spinal segments or harvested SH-SY5Y cells were homogenized on ice in RIPA buffer (1% NP-40, 0.5% sodium deoxycholate, 0.1% sodium dodecyl sulfate (SDS), 5 mM EDTA in PBS, pH 7.4) (3 ml/g wet tissue, or 0.6 ml/10 cm dish) in the presence of protease inhibitors (0.05 mg/ml pepstatin, 0.05 mg/ml aprotinin, 0.1 mg/ml phenylmethylsulfonyl fluoride). […] ECL-detected bands were analyzed using a densitometer and. Quantity One analysis program (BioRad, Hercules, Calif.).

CaMKII (Homo sapiens, UniProt Q9UQM7), sequence (Q9UQM7 whole entry): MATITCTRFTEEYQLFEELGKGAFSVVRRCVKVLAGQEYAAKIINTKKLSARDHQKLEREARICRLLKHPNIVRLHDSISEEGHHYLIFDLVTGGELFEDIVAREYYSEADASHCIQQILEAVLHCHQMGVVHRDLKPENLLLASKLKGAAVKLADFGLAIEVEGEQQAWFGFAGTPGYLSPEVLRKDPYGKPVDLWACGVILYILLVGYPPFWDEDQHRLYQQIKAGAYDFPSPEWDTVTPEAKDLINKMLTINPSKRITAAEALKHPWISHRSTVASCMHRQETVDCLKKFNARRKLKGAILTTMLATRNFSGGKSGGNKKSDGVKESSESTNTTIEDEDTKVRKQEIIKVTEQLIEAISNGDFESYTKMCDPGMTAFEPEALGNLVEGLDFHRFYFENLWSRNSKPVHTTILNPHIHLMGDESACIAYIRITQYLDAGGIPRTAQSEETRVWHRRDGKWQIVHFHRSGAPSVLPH

SMILES | prevention of opioid tolerance, acute model [1] | inhibition of CaMKII [2] | inhibition of protein kinase A [3] | effect on established opioid tolerance, chronic model ([4]; chronic morphine pellet) | prevention of opioid dependence, acute model ([5]; administered simultaneously with morphine 100 mg/kg s.c., FIG. 7) | reversal of established opioid dependence, acute model ([5]; already-established dependence, FIG. 9) | inhibition of PKC [6] | reversal of established opioid tolerance, acute model ([1]; already-established tolerance, FIG. 8) | effect on established morphine antinociceptive tolerance ([7]; KN93 15 nmol i.th. 15 minutes before i.th. morphine, 45 minutes before tail-flick, p<0.05 vs MS group, FIG. 3) | effect on basal nociception ([7]; KN93 alone, data not shown) | effect on morphine-antinociception in naïve rats ([7]; naïve rats, data not shown) | effect on morphine-induced analgesia ([7]; summary of test results) | antinociceptive effects of morphine after chronic morphine treatment ([4]; s.c. 75 mg controlled-release pellet up to seven days) | average increase of CaMKII activity (pCaMKII content) [8] [%] | antinociceptive effect of acute i.th. morphine in morphine-pelleted vs placebo-pelleted rats ([7]; two 75 mg morphine pellets s.c., day 5, i.th. morphine 10 μg, 30 minutes, FIG. 3)
COc1ccc(S(=O)(=O)Nc2ccccc2CN(C)C/C=C/c2ccc(Cl)cc2)cc1 [KN92] | does not affect opioid tolerance | does not inhibit |  |  |  |  |  |  |  |  |  |  |  |  | 
COc1ccc(S(=O)(=O)N(CCO)c2ccccc2CN(C)CC=Cc2ccc(Cl)cc2)cc1 [KN93] | prevents opioid tolerance |  | does not inhibit | dose-dependently reverses | dose-dependently prevents | dose-dependently reverses | does not inhibit | dose-dependently reverses | reversed; also recorded: blocked | did not alter | nor did KN93 affect | does not affect |  |  | 
CN1CC[C@]23c4c5ccc(O)c4O[C@H]2[C@@H](O)C=C[C@H]3[C@H]1C5 [morphine] |  |  |  |  |  |  |  |  |  |  |  |  | significantly reduced antinociceptive effects | 250 | significantly reduced antinociceptive effect
